According to patent US11091478B2 (Fochon Pharmaceuticals, Ltd., priority 2017, dated 2021):

Columns and labels:
RS4;11 cells = experiment: Cell proliferation assay (MTS), RS4;11 cells, 72 h; assay type: cell-based; conditions: Homo sapiens, RS4-11, 72 h
Outline: (§1)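 Cells in RPMI-1640 with 10% FBS were seeded at 5000/well, left overnight at 37° C., 5% CO2, then exposed to compound at 10000 down to 1.5 nM (nine concentrations) for 72 h (RS4;11) or 120 h (DOHH2). Viability was read by MTS, 2 h, absorbance at 490/650 nm; IC50 calculated.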

DOHH2 cells = experiment: Cell proliferation assay (MTS), DOHH2 cells, 120 h; assay type: cell-based; conditions: Homo sapiens, DOHH-2, 120 h
Outline: as §1

## CC1(C)CCC(CN2CCN(c3ccc(C(=O)NS(=O)(=O)c4cc5c(c([N+](=O)[O-])c4)N[C@H](CN4C[C@H]6C[C@@H]4CO6)CO5)c(Oc4cnc5[nH]ccc5c4)c3)CC2)=C(c2ccc(Cl)cc2)C1 [Example 2-83, 2-((1H-pyrrolo[2,3-b]pyridin-5-yl)oxy)-N-(((R)-3-(((1R,4R)-2-oxa-5-azabicyclo[2.2.1]heptan-5-yl)methyl)-5-nitro-3,4-dihydro-2H-benzo[b][1,4]oxazin-7-yl)sulfonyl)-4-(4-((4′-chloro-5,5-dimethyl-3,4,5,6-tetrahydro-[1,1′-biphenyl]-2-yl)methyl)piperazin-1-yl) benzamide]
RS4;11 cells
  IC50: 1 nM
DOHH2 cells
  IC50: 13 nM

## CC1(C)CCC(CN2CCN(c3ccc(C(=O)NS(=O)(=O)c4cc5c(c([N+](=O)[O-])c4)N[C@H](CN4CC(C)(O)C4)CO5)c(Oc4cnc5[nH]ccc5c4)c3)CC2)=C(c2ccc(Cl)cc2)C1 [Example 2-21, (R)-2-((1H-pyrrolo[2,3-b]pyridin-5-yl)oxy)-4-(4-((4′-chloro-5,5-dimethyl-3,4,5,6-tetra-hydro-[1,1′-biphenyl]-2-yl)methyl)piperazin-1-yl)-N-((3-((3-hydroxy-3-methylazetidin-1-yl)methyl)-5-nitro-3,4-dihydro-2H-ben-zo[b][1,4]oxazin-7-yl)sulfonyl)benzamide]
RS4;11 cells
  IC50: 1 nM
DOHH2 cells
  IC50: 8 nM

## COCC[C@@H]1COc2cc(S(=O)(=O)NC(=O)c3ccc(N4CCN(CC5=C(c6ccc(Cl)cc6)CC(C)(C)CC5)CC4)cc3Oc3cnc4[nH]ccc4c3)cc([N+](=O)[O-])c2N1 [Example 2-65, (R)-2-((1H-pyrrolo[2,3-b]pyridin-5-yl)oxy)-4-(4-((4′-chloro-5,5-dimethyl-3,4,5,6-tetra-hydro-[1,1′-biphenyl]-2-yl)methyl)piperazin-1-yl)-N-((3-(2-methoxyethyl)-5-nitro-3,4-dihydro-2H-benzo[b][1,4]oxazin-7-yl)sulfonyl)benzamide]
RS4;11 cells
  IC50: 20 nM
DOHH2 cells
  IC50: 14 nM

## CC1(C)CCC(CN2CCN(c3ccc(C(=O)NS(=O)(=O)c4cc5c(c([N+](=O)[O-])c4)N[C@@H](Cc4ccccn4)CO5)c(Oc4cnc5[nH]ccc5c4)c3)CC2)=C(c2ccc(Cl)cc2)C1 [Example 2-133, (S)-2-((1H-pyrrolo[2,3-b]pyridin-5-yl)oxy)-4-(4-((4′-chloro-5,5-dimethyl-3,4,5,6-tetra-hydro-[1,1′-biphenyl]-2-yl)methyl)piperazin-1-yl)-N-((5-nitro-3-(pyridin-2-ylmethyl)-3,4-dihydro-2H-benzo[b][1,4]oxazin-7-yl)sulfonyl)benzamide]
RS4;11 cells
  IC50: 1 nM
DOHH2 cells
  IC50: 8 nM

## C[C@@H]1CN(CC[C@@H]2COc3cc(S(=O)(=O)NC(=O)c4ccc(N5CCN(CC6=C(c7ccc(Cl)cc7)CC(C)(C)CC6)CC5)cc4Oc4cnc5[nH]ccc5c4)cc([N+](=O)[O-])c3N2)CCO1 [Example 2-42, 2-((1H-pyrrolo[2,3-b]pyridin-5-yl)oxy)-4-(4-((4′-chloro-5,5-dimethyl-3,4,5,6-tetrahydro-[1,1′-biphenyl]-2-yl)methyl)piperazin-1-yl)-N-(((R)-3-(2-((R)-2-methylmorpholino)ethyl)-5-nitro-3,4-dihydro-2H-benzo[b][1,4]oxa-zin-7-yl)sulfonyl)benzamide]
RS4;11 cells
  IC50: 6 nM
DOHH2 cells
  IC50: 38 nM

## CC1(C)CCC(CN2CCN(c3ccc(C(=O)NS(=O)(=O)c4cc5c(c([N+](=O)[O-])c4)N[C@H](CCN4CCC(C)(O)CC4)C5)c(Oc4cnc5[nH]ccc5c4)c3)CC2)=C(c2ccc(Cl)cc2)C1 [Example 1-13, (S)-2-((1H-pyrrolo[2,3-b]pyridin-5-yl)oxy)-4-(4-((4′-chloro-5,5-dimethyl-3,4,5,6-tetra-hydro-[1,1′-biphenyl]-2-yl)methyl)piperazin-1-yl)-N-((2-(2-(4-hydroxy-4-methylpiper-idin-1-yl)ethyl)-7-nitroindolin-5-yl)sulfonyl) benzamide]
RS4;11 cells
  IC50: 74 nM
DOHH2 cells
  IC50: 91 nM

## CC1(C)CCC(CN2CCN(c3ccc(C(=O)NS(=O)(=O)c4cc5c(c([N+](=O)[O-])c4)N[C@H](Cc4ccccc4F)CO5)c(Oc4cnc5[nH]ccc5c4)c3)CC2)=C(c2ccc(Cl)cc2)C1 [Example 2-157, (R)-2-((1H-pyrrolo[2,3-b]pyridin-5-yl)oxy)-4-(4-((4′-chloro-5,5-dimethyl-3,4,5,6-tetra-hydro-[1,1′-biphenyl]-2-yl)methyl)piperazin-1-yl)-N-((3-(2-fluorobenzyl)-5-nitro-3,4-dihydro-2H-benzo[b][1,4]oxazin-7-yl)sulfo-nyl)benzamide]
RS4;11 cells
  IC50: 10 nM
DOHH2 cells
  IC50: 39 nM

## C[C@H]1CN(CC[C@H]2COc3cc(S(=O)(=O)NC(=O)c4ccc(N5CCN(CC6=C(c7ccc(Cl)cc7)CC(C)(C)CC6)CC5)cc4Oc4cnc5[nH]ccc5c4)cc([N+](=O)[O-])c3N2)CCN1C [Example 2-47, 2-((1H-pyrrolo[2,3-b]pyridin-5-yl)oxy)-4-(4-((4′-chloro-5,5-dimethyl-3,4,5,6-tetrahydro-[1,1′-biphenyl]-2-yl)methyl)piperazin-1-yl)-N-(((S)-3-(2-((S)-3,4-dimethylpiperazin-1-yl)ethyl)-5-nitro-3,4-dihydro-2H-benzo [b][1,4]oxazin-7-yl)sulfonyl)benzamide]
RS4;11 cells
  IC50: 22 nM
DOHH2 cells
  IC50: 12 nM

## CC1(C)CCC(CN2CCN(c3ccc(C(=O)NS(=O)(=O)c4cc5c(c([N+](=O)[O-])c4)N[C@@H](CNC(=O)OC4CCOCC4)CO5)c(Oc4cnc5[nH]ccc5c4)c3)CC2)=C(c2ccc(Cl)cc2)C1 [Example 2-61, tetrahydro-2H-pyran-4-yl (S)-((7-(N-(2-((1H-pyrrolo[2,3-b]pyridin-5-yl)oxy)-4-(4-((4′-chloro-5,5-dimethyl-3,4,5,6-tetrahydro-[1,1′-biphenyl]-2-yl)methyl)piperazin-1-yl)benzoyl)sulfamoyl)-5-nitro-3,4-dihydro-2H-benzo[b][1,4]oxazin-3-yl)methyl)carbamate]
RS4;11 cells
  IC50: 48 nM
DOHH2 cells
  IC50: 444 nM

## CC1(C)CCC(CN2CCN(c3ccc(C(=O)NS(=O)(=O)c4cc5c(c([N+](=O)[O-])c4)N[C@@H](CO)CS5)c(Oc4cnc5[nH]ccc5c4)c3)CC2)=C(c2ccc(Cl)cc2)C1 [Example 3-7, (S)-2-((1H-pyrrolo[2,3-b]pyridin-5-yl)oxy)-4-(4-((4′-chloro-5,5-dimethyl-3,4,5,6-tetra-hydro-[1,1′-biphenyl]-2-yl)methyl)piperazin-1-yl)-N-((3-(hydroxymethyl)-5-nitro-3,4-dihydro-2H-benzo[b][1,4]thiazin-7-yl)sulfonyl) benzamide]
RS4;11 cells
  IC50: 10 nM
DOHH2 cells
  IC50: 31 nM

## COC(=O)N1CCC([C@@H]2COc3cc(S(=O)(=O)NC(=O)c4ccc(N5CCN(CC6=C(c7ccc(Cl)cc7)CC(C)(C)CC6)CC5)cc4Oc4cnc5[nH]ccc5c4)cc([N+](=O)[O-])c3N2)CC1 [Example 2-223, methyl (R)-4-(7-(N-(2-((1H-pyrrolo[2,3-b]pyridin-5-yl)oxy)-4-(4-((4′-chloro-5,5-dimethyl-3,4,5,6-tetrahydro-[1,1′-biphenyl]-2-yl)methyl)piperazin-1-yl)benzoyl)sulfamoyl)-5-nitro-3,4-dihydro-2H-benzo[b][1,4]oxazin-3-yl) piperidine-1-carboxylate]
RS4;11 cells
  IC50: 1 nM
DOHH2 cells
  IC50: 11 nM

## CC1(C)CCC(CN2CCN(c3ccc(C(=O)NS(=O)(=O)c4cc5c(c([N+](=O)[O-])c4)N[C@H](Cc4ccc(F)cc4)CO5)c(Oc4cnc5[nH]ccc5c4)c3)CC2)=C(c2ccc(Cl)cc2)C1 [Example 2-158, (R)-2-((1H-pyrrolo[2,3-b]pyridin-5-yl)oxy)-4-(4-((4′-chloro-5,5-dimethyl-3,4,5,6-tetra-hydro-[1,1′-biphenyl]-2-yl)methyl)piperazin-1-yl)-N-((3-(4-fluorobenzyl)-5-nitro-3,4-dihydro-2H-benzo[b][1,4]oxazin-7-yl)sulfo-nyl)benzamide]
RS4;11 cells
  IC50: 43 nM
DOHH2 cells
  IC50: 135 nM

## CC1(C)CCC(c2ccc(Cl)cc2)=C(CN2CCN(c3ccc(C(=O)NS(=O)(=O)c4cc5c(c([N+](=O)[O-])c4)N[C@@H](Cc4ccccn4)CO5)c(Oc4cnc5[nH]ccc5c4)c3)CC2)C1 [Example 2-211, (S)-2-((1H-pyrrolo[2,3-b]pyridin-5-yl)oxy)-4-(4-((4′-chloro-4,4-dimethyl-3,4,5,6-tetra-hydro-[1,1′-biphenyl]-2-yl)methyl)piperazin-1-yl)-N-((5-nitro-3-(pyridin-2-ylmethyl)-3,4-dihydro-2H-benzo[b][1,4]oxazin-7-yl)sulfonyl)benzamide]
RS4;11 cells
  IC50: 35 nM
DOHH2 cells
  IC50: 92 nM

## CC1(C)CCC(CN2CCN(c3ccc(C(=O)NS(=O)(=O)c4cc5c(c([N+](=O)[O-])c4)N[C@H](CN4C[C@@H]6C[C@H]4CO6)CO5)c(-n4ncc5nc6[nH]ccc6cc54)c3)CC2)=C(c2ccc(Cl)cc2)C1 [Example 6-1, N—(((R)-3-(((1S,4S)-2-oxa-5-azabicyclo[2.2.1]heptan-5-yl)methyl)-5-nitro-3,4-dihydro-2H-benzo[b][1,4]oxazin-7-yl)sulfonyl)-4-(4-((4′-chloro-5,5-dimethyl-3,4,5,6-tetrahydro-[1,1′-biphenyl]-2-yl)methyl)piperazin-1-yl)-2-(pyrazolo[4,3-b]pyrrolo[3,2-e]pyridin-1(5H)-yl)benzamide]
RS4;11 cells
  IC50: 2 nM
DOHH2 cells
  IC50: 73 nM

## COc1ccc(C[C@H]2COc3cc(S(=O)(=O)NC(=O)c4ccc(N5CCN(CC6=C(c7ccc(Cl)cc7)CC(C)(C)CC6)CC5)cc4Oc4cnc5[nH]ccc5c4)cc([N+](=O)[O-])c3N2)nc1 [Example 2-162, (S)-2-((1H-pyrrolo[2,3-b]pyridin-5-yl)oxy)-4-(4-((4′-chloro-5,5-dimethyl-3,4,5,6-tetra-hydro-[1,1′-biphenyl]-2-yl)methyl)piperazin-1-yl)-N-((3-((5-methoxypyridin-2-yl)meth-yl)-5-nitro-3,4-dihydro-2H-benzo[b][1,4]oxain-7-yl)sulfonyl)benzamide]
RS4;11 cells
  IC50: 43 nM
DOHH2 cells
  IC50: 325 nM
